Measurements taken from ChEMBL document CHEMBL5032500, “Adenosine A2AR/A1R Antagonists Enabling Additional H3R Antagonism for the Treatment of Parkinson's Disease” (J Med Chem, 2021).
The source made the active and inactive calls. The rule behind the calls is not given here.

Experiments:
Homo sapiens [1] = organism: Homo sapiens; test: Selectivity index, ratio of Ki for human recombinant adenosine A2B receptor to Ki for human recombinant histamine H3 receptor
[2] = molecular target: Adenosine receptors; A1 & A3 (Homo sapiens) (UniProt P30542+P0DMS8); test: Selectivity index, ratio of Ki for human recombinant adenosine A3 receptor to Ki for human recombinant adenosine A1 receptor; assay type: protein assay
D(2) dopamine receptor = D(2) dopamine receptor (Homo sapiens, UniProt P14416); test: Displacement of [3H]spiperone from human recombinant dopamine D2S receptor expressed in CHO cells by liquid scintillation counting analysis; assay type: cell-based
Homo sapiens [3] = organism: Homo sapiens; test: Selectivity index, ratio of Ki for human recombinant dopamine D2S receptor to Ki for human recombinant histamine H3 receptor
Homo sapiens [4] = organism: Homo sapiens; test: Selectivity index, ratio of Ki for human recombinant dopamine D3 receptor to Ki for human recombinant adenosine A2B receptor
[5] = Toxicity in C57BL/6 mouse assessed as effect on paradoxical sleep at 2 mg/kg, po by EEG analysis; assay type: organism-based; conditions: in vivo
Homo sapiens [6] = organism: Homo sapiens; test: Selectivity index, ratio of Ki for human recombinant dopamine D2S receptor to Ki for human recombinant adenosine A3 receptor
Histamine H1 receptor = Histamine H1 receptor (Homo sapiens, UniProt P35367); test: Displacement of [3H]pyrilamine from human recombinant histamine H1 receptor expressed in CHO cells by liquid scintillation counting analysis; assay type: cell-based
Homo sapiens [7] = organism: Homo sapiens; test: Selectivity index, ratio of Ki for human recombinant adenosine A2B receptor to Ki for human recombinant adenosine A2A receptor
Homo sapiens [8] = organism: Homo sapiens; test: Selectivity index, ratio of Ki for human recombinant dopamine D2S receptor to Ki for human recombinant adenosine A1 receptor
Homo sapiens [9] = organism: Homo sapiens; test: Selectivity index, ratio of Ki for human recombinant adenosine A2A receptor to Ki for human recombinant histamine H3 receptor
Homo sapiens [10] = organism: Homo sapiens; test: Selectivity index, ratio of Ki for human recombinant adenosine A3 receptor to Ki for human recombinant adenosine A2A receptor
[11] = Displacement of [3H]SCH23390 from human recombinant dopamine D1 receptor expressed in HEK293 cells by liquid scintillation counting analysis; assay type: cell-based
Adenosine receptor A2a [12] = molecular target: T1, Adenosine receptor A2a (Homo sapiens, UniProt P29274); test: […] activity at human recombinant adenosine A2A receptor expressed in CHO cells assessed as inhibition of NECA-induced cAMP accumulation incubated for 20 mins by radioligand competition binding assay; assay type: functional, cell-based
Histamine H4 receptor = Histamine H4 receptor (Homo sapiens, UniProt Q9H3N8); test: Displacement of [3H]histamine from human recombinant histamine H4 receptor expressed in sf9 cells by liquid scintillation counting analysis
Homo sapiens [13] = organism: Homo sapiens; test: Selectivity index, ratio of Ki for human recombinant dopamine D3 receptor to Ki for human recombinant histamine H3 receptor
D(1B) dopamine receptor = D(1B) dopamine receptor (Homo sapiens, UniProt P21918); test: Displacement of [3H]SCH23390 from human recombinant dopamine D5 receptor expressed in HEK293 cells by liquid scintillation counting analysis; assay type: cell-based
Histamine H3 receptor = Histamine H3 receptor (Homo sapiens, UniProt Q9Y5N1); test: Displacement of [3H] N-alpha methylhistamine from human recombinant histamine H3 receptor expressed in HEK293 cells measured after 90 mins; assay type: cell-based
MAO-A = MAO-A (Homo sapiens, UniProt P21397); test: Inhibition of human recombinant MAO-A using kynuramine as substrate at 10 uM measured for 30 mins by spectrophotometric analysis; conditions: probe kynuramine
Mus musculus [14] = test: Induction of wake promoting activity in C57BL/6 mouse assessed as reduction in slow wave sleep at 2 mg/kg, po by EEG analysis; assay type: functional, organism-based
MAO-B = MAO-B (Homo sapiens, UniProt P27338); test: Inhibition of human recombinant MAO-B using kynuramine as substrate at 10 uM measured for 30 mins by spectrophotometric analysis; conditions: probe kynuramine
D(3) dopamine receptor = D(3) dopamine receptor (Homo sapiens, UniProt P35462); test: Displacement of [3H]spiperone from human recombinant dopamine D3 receptor expressed in CHO cells by liquid scintillation counting analysis; assay type: cell-based
Homo sapiens [15] = organism: Homo sapiens; test: Selectivity index, ratio of Ki for human recombinant dopamine D3 receptor to Ki for human recombinant adenosine A1 receptor
Homo sapiens [16] = organism: Homo sapiens; test: Selectivity index, ratio of Ki for human recombinant dopamine D3 receptor to Ki for human recombinant dopamine D2S receptor
Adenosine receptor A1 = molecular target: T2, Adenosine receptor A1 (Homo sapiens, UniProt P30542); test: Displacement of [3H]CCPA from human recombinant adenosine A1 receptor expressed in CHO cells by liquid scintillation counting analysis; assay type: cell-based
T2 sequence (P30542 whole entry): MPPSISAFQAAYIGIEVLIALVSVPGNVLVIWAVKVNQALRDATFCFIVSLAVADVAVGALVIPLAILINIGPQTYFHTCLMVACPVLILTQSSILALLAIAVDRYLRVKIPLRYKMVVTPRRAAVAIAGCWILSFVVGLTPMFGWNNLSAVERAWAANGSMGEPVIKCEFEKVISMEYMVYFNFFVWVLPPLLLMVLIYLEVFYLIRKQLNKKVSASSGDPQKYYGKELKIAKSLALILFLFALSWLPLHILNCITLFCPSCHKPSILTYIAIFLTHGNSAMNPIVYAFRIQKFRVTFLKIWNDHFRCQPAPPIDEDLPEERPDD

Mus musculus [17] = test: Induction of wakefulness in C57BL/6 mouse assessed as increase in time spent awake at 2 mg/kg, po by EEG analysis; assay type: functional, organism-based
Homo sapiens [18] = organism: Homo sapiens; test: Selectivity index, ratio of Ki for human recombinant dopamine D3 receptor to Ki for human recombinant adenosine A3 receptor
Mus musculus [19] = test: Induction of wakefulness in C57BL/6 mouse at 1 mg/kg, po by EEG analysis; assay type: functional, organism-based
Homo sapiens [20] = organism: Homo sapiens; test: Selectivity index, ratio of Ki for human recombinant dopamine D2S receptor to Ki for human recombinant adenosine A2A receptor
Homo sapiens [21] = organism: Homo sapiens; test: Selectivity index, ratio of Ki for human recombinant dopamine D3 receptor to Ki for human recombinant adenosine A2A receptor
Adenosine receptor A3 = molecular target: T3, Adenosine receptor A3 (Homo sapiens, UniProt P0DMS8); test: Displacement of [3H]PSB-11 from human recombinant adenosine A3 receptor expressed in CHO cells by liquid scintillation counting analysis; assay type: cell-based
T3 sequence (P0DMS8 whole entry): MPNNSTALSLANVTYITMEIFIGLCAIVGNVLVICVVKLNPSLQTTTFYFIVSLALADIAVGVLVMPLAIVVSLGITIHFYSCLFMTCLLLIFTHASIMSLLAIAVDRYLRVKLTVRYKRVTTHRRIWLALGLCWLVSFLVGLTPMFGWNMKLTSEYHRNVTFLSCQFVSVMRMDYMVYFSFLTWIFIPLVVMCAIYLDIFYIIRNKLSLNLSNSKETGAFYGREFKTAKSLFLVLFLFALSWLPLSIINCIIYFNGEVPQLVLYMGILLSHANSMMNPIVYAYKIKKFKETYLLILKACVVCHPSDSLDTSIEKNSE

Homo sapiens [22] = organism: Homo sapiens; test: Selectivity index, ratio of Ki for human recombinant adenosine A1 receptor to Ki for human recombinant histamine H3 receptor
Rattus norvegicus = test: Antiparkinson's activity in ip dosed L-DOPA induced dyskinesia Sprague-Dawley rat model assessed as reduction in dyskinesia by measuring abnormal involuntary movement upto 21 days; assay type: functional, organism-based; conditions: dose 0.1-1 mg/kg, time day <=21
Homo sapiens [23] = organism: Homo sapiens; test: Selectivity index, ratio of Ki for human recombinant adenosine A2B receptor to Ki for human recombinant adenosine A1 receptor
Adenosine receptor A2b = molecular target: T4, Adenosine receptor A2b (Homo sapiens, UniProt P29275); test: Displacement of [3H]PSB-603 from human recombinant adenosine A2B receptor expressed in CHO cells by liquid scintillation counting analysis; assay type: cell-based
T4 sequence (P29275 whole entry): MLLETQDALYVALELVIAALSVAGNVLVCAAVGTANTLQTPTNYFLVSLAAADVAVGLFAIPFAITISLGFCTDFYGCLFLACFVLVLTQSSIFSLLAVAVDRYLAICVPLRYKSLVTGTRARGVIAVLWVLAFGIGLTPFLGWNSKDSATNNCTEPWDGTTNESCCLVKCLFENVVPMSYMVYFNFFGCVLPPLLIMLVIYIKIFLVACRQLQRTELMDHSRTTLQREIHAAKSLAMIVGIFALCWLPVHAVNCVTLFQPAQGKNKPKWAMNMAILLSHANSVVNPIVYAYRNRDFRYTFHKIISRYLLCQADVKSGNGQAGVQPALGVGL

Homo sapiens [24] = organism: Homo sapiens; test: Selectivity index, ratio of Ki for human recombinant adenosine A3 receptor to Ki for human recombinant histamine H3 receptor
Homo sapiens [25] = organism: Homo sapiens; test: Selectivity index, ratio of Ki for human recombinant dopamine D2S receptor to Ki for human recombinant adenosine A2B receptor
Homo sapiens [26] = organism: Homo sapiens; test: Selectivity index, ratio of Ki for human recombinant adenosine A3 receptor to Ki for human recombinant adenosine A2B receptor
Adenosine receptor A2a [27] = molecular target: T1, Adenosine receptor A2a; test: Displacement of [3H]MSX-2 from human recombinant adenosine A2A receptor expressed in CHO cells by liquid scintillation counting analysis; assay type: cell-based
Homo sapiens [28] = organism: Homo sapiens; test: Selectivity index, ratio of Ki for human recombinant adenosine A2A receptor to Ki for human recombinant adenosine A1 receptor
[29] = molecular target: Amine oxidase [flavin-containing] B (Homo sapiens, UniProt P27338); test: Inhibition of human recombinant MAO-B using kynuramine as substrate measured for 30 mins by spectrophotometric analysis
Amine oxidase [flavin-containing] B, sequence (P27338 whole entry): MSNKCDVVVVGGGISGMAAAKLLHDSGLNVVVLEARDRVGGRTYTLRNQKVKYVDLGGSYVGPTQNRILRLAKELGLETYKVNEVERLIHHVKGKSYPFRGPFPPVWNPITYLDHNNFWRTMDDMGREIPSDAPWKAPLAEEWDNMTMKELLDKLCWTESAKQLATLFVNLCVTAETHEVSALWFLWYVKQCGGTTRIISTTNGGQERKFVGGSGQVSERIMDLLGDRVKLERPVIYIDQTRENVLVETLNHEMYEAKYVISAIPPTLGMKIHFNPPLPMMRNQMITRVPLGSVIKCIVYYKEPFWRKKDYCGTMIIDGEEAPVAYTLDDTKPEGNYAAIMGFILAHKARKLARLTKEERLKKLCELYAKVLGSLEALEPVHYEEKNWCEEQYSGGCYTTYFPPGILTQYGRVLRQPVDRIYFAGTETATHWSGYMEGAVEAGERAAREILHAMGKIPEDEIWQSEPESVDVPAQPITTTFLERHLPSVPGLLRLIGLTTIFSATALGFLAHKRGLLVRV

T1 sequence (P29274 whole entry): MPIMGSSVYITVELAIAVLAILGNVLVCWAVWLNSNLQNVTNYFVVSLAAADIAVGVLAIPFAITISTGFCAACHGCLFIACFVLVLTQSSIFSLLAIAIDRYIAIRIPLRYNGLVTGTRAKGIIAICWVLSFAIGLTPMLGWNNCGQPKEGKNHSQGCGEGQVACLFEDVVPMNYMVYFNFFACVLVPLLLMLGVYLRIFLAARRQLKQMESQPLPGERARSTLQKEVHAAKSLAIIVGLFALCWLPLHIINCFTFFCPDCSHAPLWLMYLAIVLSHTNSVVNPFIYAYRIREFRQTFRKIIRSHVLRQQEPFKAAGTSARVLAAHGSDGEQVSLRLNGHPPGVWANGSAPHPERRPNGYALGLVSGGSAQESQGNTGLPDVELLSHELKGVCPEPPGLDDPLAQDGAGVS
D(2) dopamine receptor, sequence (P14416 whole entry): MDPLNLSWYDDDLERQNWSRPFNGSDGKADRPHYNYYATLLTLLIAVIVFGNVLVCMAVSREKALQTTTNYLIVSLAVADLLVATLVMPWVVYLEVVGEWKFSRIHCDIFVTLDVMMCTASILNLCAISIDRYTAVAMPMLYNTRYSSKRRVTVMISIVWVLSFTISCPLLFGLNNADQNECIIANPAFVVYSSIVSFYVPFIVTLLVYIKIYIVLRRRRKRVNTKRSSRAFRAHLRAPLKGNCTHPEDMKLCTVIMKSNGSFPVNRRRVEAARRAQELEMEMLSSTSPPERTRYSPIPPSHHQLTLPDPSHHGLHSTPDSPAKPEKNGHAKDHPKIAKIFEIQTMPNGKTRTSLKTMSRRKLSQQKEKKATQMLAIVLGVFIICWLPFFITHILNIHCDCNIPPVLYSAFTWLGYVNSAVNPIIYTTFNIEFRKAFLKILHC
D(3) dopamine receptor, sequence (P35462 whole entry): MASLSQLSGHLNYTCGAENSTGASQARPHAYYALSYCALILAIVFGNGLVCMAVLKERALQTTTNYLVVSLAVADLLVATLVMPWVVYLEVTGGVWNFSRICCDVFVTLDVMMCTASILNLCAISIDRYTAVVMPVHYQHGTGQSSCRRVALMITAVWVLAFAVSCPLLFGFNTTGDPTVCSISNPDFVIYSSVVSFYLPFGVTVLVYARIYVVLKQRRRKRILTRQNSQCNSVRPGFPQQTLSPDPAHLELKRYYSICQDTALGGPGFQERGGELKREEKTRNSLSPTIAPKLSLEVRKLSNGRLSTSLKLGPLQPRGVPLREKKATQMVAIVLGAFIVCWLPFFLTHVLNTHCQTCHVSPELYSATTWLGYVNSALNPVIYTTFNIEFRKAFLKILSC
Histamine H4 receptor, sequence (Q9H3N8 whole entry): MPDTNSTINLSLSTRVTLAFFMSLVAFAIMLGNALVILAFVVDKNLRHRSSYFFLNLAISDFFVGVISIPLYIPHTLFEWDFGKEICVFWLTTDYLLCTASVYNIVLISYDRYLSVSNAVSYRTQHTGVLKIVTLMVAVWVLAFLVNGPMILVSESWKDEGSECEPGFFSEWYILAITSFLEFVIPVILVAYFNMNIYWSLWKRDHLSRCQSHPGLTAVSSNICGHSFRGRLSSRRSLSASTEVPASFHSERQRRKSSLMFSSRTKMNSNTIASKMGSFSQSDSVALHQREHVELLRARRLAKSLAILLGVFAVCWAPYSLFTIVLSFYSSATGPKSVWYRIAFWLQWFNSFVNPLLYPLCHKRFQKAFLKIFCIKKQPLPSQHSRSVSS
MAO-B, sequence (P27338 whole entry): as the sequence (P27338 whole entry) above
Histamine H3 receptor, sequence (Q9Y5N1 whole entry): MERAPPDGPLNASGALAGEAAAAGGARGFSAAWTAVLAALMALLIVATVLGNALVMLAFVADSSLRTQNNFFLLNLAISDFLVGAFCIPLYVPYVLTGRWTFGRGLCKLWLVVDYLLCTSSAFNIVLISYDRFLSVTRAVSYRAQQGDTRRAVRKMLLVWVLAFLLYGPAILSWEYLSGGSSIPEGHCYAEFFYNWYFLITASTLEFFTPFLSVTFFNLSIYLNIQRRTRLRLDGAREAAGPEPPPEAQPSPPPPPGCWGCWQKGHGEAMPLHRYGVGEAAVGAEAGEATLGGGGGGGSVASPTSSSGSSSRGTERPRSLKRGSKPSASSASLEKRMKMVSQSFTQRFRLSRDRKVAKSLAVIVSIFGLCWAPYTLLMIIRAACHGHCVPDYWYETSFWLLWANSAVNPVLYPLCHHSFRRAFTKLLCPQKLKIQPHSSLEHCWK
MAO-A, sequence (P21397 whole entry): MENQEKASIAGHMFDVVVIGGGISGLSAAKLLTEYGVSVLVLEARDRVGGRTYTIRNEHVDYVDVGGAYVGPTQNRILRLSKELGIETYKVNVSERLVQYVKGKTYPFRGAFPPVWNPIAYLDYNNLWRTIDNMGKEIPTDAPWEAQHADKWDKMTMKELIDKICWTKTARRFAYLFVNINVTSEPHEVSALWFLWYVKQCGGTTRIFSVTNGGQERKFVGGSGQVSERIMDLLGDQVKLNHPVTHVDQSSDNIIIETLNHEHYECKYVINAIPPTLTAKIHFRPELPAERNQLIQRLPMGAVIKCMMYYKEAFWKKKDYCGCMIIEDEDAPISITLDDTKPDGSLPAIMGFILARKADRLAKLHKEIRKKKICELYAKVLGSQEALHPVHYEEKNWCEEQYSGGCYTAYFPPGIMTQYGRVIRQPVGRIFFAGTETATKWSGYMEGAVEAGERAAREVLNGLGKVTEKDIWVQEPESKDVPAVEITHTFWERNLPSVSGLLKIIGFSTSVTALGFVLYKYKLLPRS
Histamine H1 receptor, sequence (P35367 whole entry): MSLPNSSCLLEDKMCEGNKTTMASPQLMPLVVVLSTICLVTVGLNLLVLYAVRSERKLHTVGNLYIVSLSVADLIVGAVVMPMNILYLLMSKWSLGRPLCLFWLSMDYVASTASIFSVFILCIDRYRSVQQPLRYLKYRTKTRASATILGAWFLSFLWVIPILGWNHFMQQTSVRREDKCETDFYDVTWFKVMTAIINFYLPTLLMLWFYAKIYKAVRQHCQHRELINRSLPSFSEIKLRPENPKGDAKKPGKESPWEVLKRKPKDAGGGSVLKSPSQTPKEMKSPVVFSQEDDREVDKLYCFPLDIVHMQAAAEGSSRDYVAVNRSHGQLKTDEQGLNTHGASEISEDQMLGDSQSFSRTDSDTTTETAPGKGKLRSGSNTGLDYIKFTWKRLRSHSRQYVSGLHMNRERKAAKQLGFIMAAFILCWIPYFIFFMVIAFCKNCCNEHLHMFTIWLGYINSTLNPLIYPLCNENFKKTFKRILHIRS
D(1B) dopamine receptor, sequence (P21918 whole entry): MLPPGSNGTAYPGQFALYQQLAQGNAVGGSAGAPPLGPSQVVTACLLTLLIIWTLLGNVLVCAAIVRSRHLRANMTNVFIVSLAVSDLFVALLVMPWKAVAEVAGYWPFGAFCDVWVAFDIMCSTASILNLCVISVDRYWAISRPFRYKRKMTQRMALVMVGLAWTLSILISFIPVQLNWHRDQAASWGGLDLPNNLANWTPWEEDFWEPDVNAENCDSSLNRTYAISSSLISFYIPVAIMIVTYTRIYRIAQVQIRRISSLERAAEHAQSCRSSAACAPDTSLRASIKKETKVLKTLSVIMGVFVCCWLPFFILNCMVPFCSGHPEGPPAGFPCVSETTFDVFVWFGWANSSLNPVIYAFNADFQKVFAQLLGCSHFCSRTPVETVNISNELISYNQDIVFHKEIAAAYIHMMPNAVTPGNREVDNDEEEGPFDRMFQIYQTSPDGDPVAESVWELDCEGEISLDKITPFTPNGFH

Compound	Ratio Ki (Homo sapiens [1])	Ratio Ki [2]	Ki (D(2) dopamine receptor)	Ratio Ki (Homo sapiens [3])	Ratio Ki (Homo sapiens [4])	Ratio Ki (Homo sapiens [6])	Ki (Histamine H1 receptor)	Ratio Ki (Homo sapiens [7])	Ratio Ki (Homo sapiens [8])	Ratio Ki (Homo sapiens [9])	Ratio Ki (Homo sapiens [10])	Ki [11]	Activity (Adenosine receptor A2a [12])	Ki (Histamine H4 receptor)	Ratio Ki (Homo sapiens [13])	Ki (D(1B) dopamine receptor)	Ki (Histamine H3 receptor)	inhibition at 0.5 h, 10 µM (MAO-A)	inhibition at 0.5 h, 10 µM (MAO-B)	Ki (D(3) dopamine receptor)	also measured
Nc1nc(-c2ccccc2)c2c(n1)-c1cc(OCCCN3CCCCC3)ccc1C2=O	0.84	13	1590 nM	31	8	11	> 1000 nM	11	142	0.08	37	> 1000 nM	inactive	> 10000 nM	7	> 1000 nM	52 nM	16%	50%	364 nM	Activity [5]: Non-Toxic; Activity (Mus musculus [14]): Active; Ratio Ki (Homo sapiens [15]): 33; Ratio Ki (Homo sapiens [16]): 0.23; Ki (Adenosine receptor A1): 11.2 nM; Activity (Mus musculus [17]): Active; Ratio Ki (Homo sapiens [18]): 2; Activity (Mus musculus [19]): inactive; Ratio Ki (Homo sapiens [20]): 396; Ratio Ki (Homo sapiens [21]): 91; Ki (Adenosine receptor A3): 150 nM; Ratio Ki (Homo sapiens [22]): 0.22; Activity (Rattus norvegicus): Dose-Dependent Effect; Ratio Ki (Homo sapiens [23]): 4; Ki (Adenosine receptor A2b): 43.5 nM; Ratio Ki (Homo sapiens [24]): 3; Ratio Ki (Homo sapiens [25]): 36; Ratio Ki (Homo sapiens [26]): 3; Ki (Adenosine receptor A2a [27]): 4.01 nM; Ratio Ki (Homo sapiens [28]): 0.36
Nc1nc(-c2ccccc2)c2c(n1)-c1cc(OCCCN3CCCC3)ccc1C2	3	13	1250 nM	113	8	8	> 1000 nM	5	108	0.66	21	> 1000 nM	inactive	> 10000 nM	26	> 1000 nM	11 nM	7.4%	57%	290 nM	Ratio Ki (Homo sapiens [15]): 25; Ratio Ki (Homo sapiens [16]): 0.23; Ki (Adenosine receptor A1): 11.5 nM; Ratio Ki (Homo sapiens [18]): 2; Ratio Ki (Homo sapiens [20]): 172; Ratio Ki (Homo sapiens [21]): 40; Ki (Adenosine receptor A3): 150 nM; Ratio Ki (Homo sapiens [22]): 1; IC50 [29]: > 1000 nM; Activity (Rattus norvegicus): Dose-Dependent Effect; Ratio Ki (Homo sapiens [23]): 3; Ki (Adenosine receptor A2b): 36.9 nM; Ratio Ki (Homo sapiens [24]): 14; Ratio Ki (Homo sapiens [25]): 34; Ratio Ki (Homo sapiens [26]): 4; Ki (Adenosine receptor A2a [27]): 7.25 nM; Ratio Ki (Homo sapiens [28]): 0.63
